Calls of active or inactive are those of the source. No cut-off for these calls is given here.
Tests used:
[1] = system: Protein cereblon/Androgen receptor (Homo sapiens), P10275+Q96SW2 [UNDEFINED MUTATION]; experiment: PROTAC activity at CRBN/Androgen receptor splice variant 7 in human 22Rv1 cells assessed as induction of AR-V7 degradation at 20 nM incubated for 36 hrs by Western blot analysis (reference value: 0%); format: cell-based
[2] = target: Protein cereblon/Zinc finger protein Aiolos (Homo sapiens) (UniProt Q96SW2+Q9UKT9); experiment: Molecular glue activity at CRBN/IKZF3 in human 22Rv1 cells assessed as induction of IKZF3 degradation at 1 uM incubated for 6 hrs by Western blot analysis; format: cell-based
Protein cereblon/Zinc finger protein Aiolos (Homo sapiens), sequence (Q96SW2 whole entry, looked up): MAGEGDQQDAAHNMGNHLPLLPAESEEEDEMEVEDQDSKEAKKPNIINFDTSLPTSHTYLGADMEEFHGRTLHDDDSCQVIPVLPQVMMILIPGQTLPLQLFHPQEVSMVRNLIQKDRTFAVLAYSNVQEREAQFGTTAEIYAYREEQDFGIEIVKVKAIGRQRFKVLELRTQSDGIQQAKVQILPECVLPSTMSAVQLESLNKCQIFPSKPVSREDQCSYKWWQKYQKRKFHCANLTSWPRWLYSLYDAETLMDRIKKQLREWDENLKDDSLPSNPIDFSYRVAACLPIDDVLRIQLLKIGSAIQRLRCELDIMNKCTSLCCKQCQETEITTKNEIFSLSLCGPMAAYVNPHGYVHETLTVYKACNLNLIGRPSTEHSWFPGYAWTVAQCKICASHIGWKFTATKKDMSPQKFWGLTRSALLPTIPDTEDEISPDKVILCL
Protein cereblon/Zinc finger protein Aiolos (Homo sapiens), sequence (Q9UKT9 whole entry, looked up): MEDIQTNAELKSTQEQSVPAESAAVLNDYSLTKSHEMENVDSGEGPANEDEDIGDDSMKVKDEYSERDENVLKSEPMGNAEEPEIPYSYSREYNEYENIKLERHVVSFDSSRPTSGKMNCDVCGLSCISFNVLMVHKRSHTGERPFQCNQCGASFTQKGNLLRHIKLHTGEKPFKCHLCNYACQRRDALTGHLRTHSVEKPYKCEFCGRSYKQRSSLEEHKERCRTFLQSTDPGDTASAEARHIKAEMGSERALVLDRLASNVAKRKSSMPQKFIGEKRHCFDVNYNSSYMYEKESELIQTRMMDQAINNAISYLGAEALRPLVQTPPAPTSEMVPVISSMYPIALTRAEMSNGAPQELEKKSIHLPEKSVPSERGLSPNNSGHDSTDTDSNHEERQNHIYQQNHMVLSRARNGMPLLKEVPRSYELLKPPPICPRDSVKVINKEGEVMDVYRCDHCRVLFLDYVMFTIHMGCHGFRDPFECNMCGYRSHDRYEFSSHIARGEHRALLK

[3] = target: T1, Protein cereblon/Androgen receptor (Homo sapiens, UniProt P10275+Q96SW2); experiment: PROTAC activity at CRBN/AR in human 22Rv1 cells assessed as induction of AR degradation at 20 nM incubated for 12 hrs by Western blot analysis (reference value: 0 %); format: cell-based
T1 sequence (P10275 whole entry, looked up): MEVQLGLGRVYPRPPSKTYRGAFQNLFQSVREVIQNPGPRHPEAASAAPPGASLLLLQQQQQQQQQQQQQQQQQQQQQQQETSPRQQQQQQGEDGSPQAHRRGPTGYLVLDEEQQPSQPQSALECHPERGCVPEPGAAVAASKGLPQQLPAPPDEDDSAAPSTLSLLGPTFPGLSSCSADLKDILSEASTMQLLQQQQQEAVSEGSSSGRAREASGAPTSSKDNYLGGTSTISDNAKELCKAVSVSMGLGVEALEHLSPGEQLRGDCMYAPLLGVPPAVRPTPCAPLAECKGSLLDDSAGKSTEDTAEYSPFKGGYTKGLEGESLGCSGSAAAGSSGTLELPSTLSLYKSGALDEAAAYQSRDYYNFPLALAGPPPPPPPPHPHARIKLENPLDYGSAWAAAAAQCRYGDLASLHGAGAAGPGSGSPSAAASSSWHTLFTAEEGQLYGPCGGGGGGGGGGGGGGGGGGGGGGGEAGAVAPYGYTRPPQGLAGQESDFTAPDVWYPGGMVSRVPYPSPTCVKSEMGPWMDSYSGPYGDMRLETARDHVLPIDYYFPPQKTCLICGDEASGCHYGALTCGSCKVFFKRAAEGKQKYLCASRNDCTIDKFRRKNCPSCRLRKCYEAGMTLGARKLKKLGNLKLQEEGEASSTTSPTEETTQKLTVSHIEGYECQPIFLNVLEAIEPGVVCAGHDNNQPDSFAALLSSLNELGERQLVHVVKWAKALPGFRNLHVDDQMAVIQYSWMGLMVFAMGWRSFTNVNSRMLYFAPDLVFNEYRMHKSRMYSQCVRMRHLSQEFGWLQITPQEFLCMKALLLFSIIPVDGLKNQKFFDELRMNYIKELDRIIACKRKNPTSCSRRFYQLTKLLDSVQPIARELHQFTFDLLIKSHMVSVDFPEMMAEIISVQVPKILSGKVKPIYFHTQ
T1 sequence (Q96SW2 whole entry, looked up): as the sequence (Q96SW2 whole entry, looked up) above

[4] = target: Protein cereblon/Sal-like protein 4 (Homo sapiens) (UniProt Q96SW2+Q9UJQ4); experiment: Molecular glue activity at CRBN/SALL4 in human 22Rv1 cells assessed as induction of SALL4 degradation at 1 uM incubated for 6 hrs by Western blot analysis; format: cell-based
Protein cereblon/Sal-like protein 4 (Homo sapiens), sequence (Q96SW2 whole entry, looked up, canonical isoform): as the sequence (Q96SW2 whole entry, looked up) above
Protein cereblon/Sal-like protein 4 (Homo sapiens), sequence (Q9UJQ4 whole entry, looked up, canonical isoform): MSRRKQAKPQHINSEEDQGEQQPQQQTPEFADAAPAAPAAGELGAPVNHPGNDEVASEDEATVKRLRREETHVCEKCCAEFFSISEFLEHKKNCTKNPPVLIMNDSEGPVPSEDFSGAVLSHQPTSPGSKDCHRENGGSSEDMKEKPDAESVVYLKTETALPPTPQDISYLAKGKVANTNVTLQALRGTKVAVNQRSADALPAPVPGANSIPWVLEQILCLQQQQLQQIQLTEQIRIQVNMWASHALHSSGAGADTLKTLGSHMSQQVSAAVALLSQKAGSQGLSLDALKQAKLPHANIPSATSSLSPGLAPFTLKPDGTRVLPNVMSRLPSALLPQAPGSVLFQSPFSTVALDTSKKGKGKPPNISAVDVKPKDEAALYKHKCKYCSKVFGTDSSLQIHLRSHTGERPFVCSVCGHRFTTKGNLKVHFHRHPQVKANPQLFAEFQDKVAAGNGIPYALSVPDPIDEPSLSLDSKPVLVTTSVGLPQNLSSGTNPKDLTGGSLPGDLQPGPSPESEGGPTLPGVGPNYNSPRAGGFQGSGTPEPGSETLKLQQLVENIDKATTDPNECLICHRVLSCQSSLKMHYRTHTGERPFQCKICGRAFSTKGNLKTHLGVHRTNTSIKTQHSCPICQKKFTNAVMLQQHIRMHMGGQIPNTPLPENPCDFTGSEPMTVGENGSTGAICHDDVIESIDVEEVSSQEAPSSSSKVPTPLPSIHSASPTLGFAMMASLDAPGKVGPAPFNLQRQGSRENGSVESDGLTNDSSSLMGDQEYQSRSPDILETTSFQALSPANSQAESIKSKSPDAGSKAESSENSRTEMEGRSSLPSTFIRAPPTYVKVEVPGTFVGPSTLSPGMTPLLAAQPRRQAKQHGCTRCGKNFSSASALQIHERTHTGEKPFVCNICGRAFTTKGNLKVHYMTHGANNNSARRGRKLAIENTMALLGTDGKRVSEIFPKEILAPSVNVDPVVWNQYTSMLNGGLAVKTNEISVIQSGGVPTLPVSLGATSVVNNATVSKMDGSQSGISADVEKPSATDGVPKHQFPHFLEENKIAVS

[5] = system: Protein cereblon/Androgen receptor (Homo sapiens), P10275+Q96SW2 [UNDEFINED MUTATION]; experiment: PROTAC activity at CRBN/Androgen receptor splice variant 7 in human 22Rv1 cells assessed as induction of AR-V7 degradation at 0.01 uM incubated for 24 hrs by Western blot analysis relative to control; format: cell-based
[6] = target: T1, Protein cereblon/Androgen receptor; experiment: PROTAC activity at CRBN/AR in human VCaP cells assessed as induction of AR degradation at 0.01 uM incubated for 24 hrs by Western blot analysis relative to control; format: cell-based
CWR22R [7] = experiment: Antiproliferative activity against AR-dependent human 22Rv1 cells assessed as cell growth inhibition incubated for 72 hrs by Celltiter-lumi luminescent cell viability assay; format: functional, cell-based; conditions: 22Rv1, 72 h
[8] = AUC in male ICR mouse at 2 mg/kg, iv by LC-MS/MS analysis; format: ADME, organism-based; conditions: in vivo
[9] = target: T1, Protein cereblon/Androgen receptor; experiment: PROTAC activity at CRBN/AR in human 22Rv1 cells assessed as induction of AR degradation at 0.1 uM incubated for 24 hrs by Western blot analysis relative to control; format: cell-based
VCaP = experiment: Antiproliferative activity against AR-dependent human VCaP cells assessed as cell growth inhibition incubated for 72 hrs by Celltiter-lumi luminescent cell viability assay; format: functional, cell-based
[10] = system: Protein cereblon/Androgen receptor (Homo sapiens), P10275+Q96SW2 [UNDEFINED MUTATION]; experiment: PROTAC activity at CRBN/Androgen receptor splice variant 7 in human 22Rv1 cells assessed as induction of AR-V7 degradation at 50 nM preincubated with MLN4924 followed by compound addition and measured after 12 hrs by Western blot analysis; format: cell-based
CWR22R [11] = experiment: Downregulation of GTPBP6 gene expression in human 22Rv1 cells at 3 nM incubated for 24 hrs by Volcano plot analysis; format: functional, cell-based
[12] = system: Protein cereblon/Androgen receptor (Homo sapiens), P10275+Q96SW2 [UNDEFINED MUTATION]; experiment: PROTAC activity at CRBN/Androgen receptor splice variant 7 in human 22Rv1 cells assessed as induction of AR-V7 degradation at 50 nM preincubated with MG132 followed by compound addition and measured after 12 hrs by Western blot analysis; format: cell-based
[13] = target: T2, Protein cereblon/Eukaryotic peptide chain release factor GTP-binding subunit ERF3A (Homo sapiens, UniProt Q96SW2+P15170); experiment: Molecular glue activity at CRBN/GSPT1 in human 22Rv1 cells assessed as induction of GSPT1 degradation at 0.01 uM incubated for 6 hrs by Western blot analysis; format: cell-based
T2 sequence (P15170 whole entry, looked up): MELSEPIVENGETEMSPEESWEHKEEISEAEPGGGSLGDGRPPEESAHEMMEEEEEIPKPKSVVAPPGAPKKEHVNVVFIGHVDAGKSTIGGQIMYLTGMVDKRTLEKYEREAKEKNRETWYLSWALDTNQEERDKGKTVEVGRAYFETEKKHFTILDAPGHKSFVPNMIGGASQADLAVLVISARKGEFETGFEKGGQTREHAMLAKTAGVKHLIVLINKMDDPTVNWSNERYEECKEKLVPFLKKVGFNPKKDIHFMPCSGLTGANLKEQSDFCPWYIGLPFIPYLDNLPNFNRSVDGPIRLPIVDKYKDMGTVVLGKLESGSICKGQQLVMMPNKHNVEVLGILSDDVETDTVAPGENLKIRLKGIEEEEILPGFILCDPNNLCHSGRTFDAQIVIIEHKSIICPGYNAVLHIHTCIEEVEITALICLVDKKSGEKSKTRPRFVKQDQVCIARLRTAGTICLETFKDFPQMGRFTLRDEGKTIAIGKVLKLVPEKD
T2 sequence (Q96SW2 whole entry, looked up): as the sequence (Q96SW2 whole entry, looked up) above

[14] = target: T1, Protein cereblon/Androgen receptor; experiment: PROTAC activity at CRBN/AR in human VCaP cells assessed as induction of AR degradation by measuring maximal efficacy incubated for 24 hrs by Western blot analysis relative to control; format: cell-based
CWR22R [15] = experiment: Effect on androgen receptor mRNA expression in human 22Rv1 cells at 1 to 10 nM incubated for 24 hrs by RT-PCR analysis; format: functional, cell-based; conditions: dose 1-10 nM
CWR22R [16] = experiment: Downregulation of MT-ATP8 gene expression in human 22Rv1 cells at 3 nM incubated for 24 hrs by Volcano plot analysis; format: functional, cell-based
CWR22R [17] = experiment: Downregulation of RCC2 gene expression in human 22Rv1 cells at 3 nM incubated for 24 hrs by Volcano plot analysis; format: functional, cell-based
[18] = target: T1, Protein cereblon/Androgen receptor; experiment: PROTAC activity at CRBN/AR in human 22Rv1 cells assessed as induction of AR degradation at 50 uM preincubated with thalidomide followed by compound addition and measured after 12 hrs by Western blot analysis; format: cell-based
[19] = target: T1, Protein cereblon/Androgen receptor; experiment: PROTAC activity at CRBN/AR in human Enzalutamide-resistant LNCaP cells assessed as induction of androgen receptor degradation at 1 to 300 nM by Western blot analysis; format: cell-based; conditions: dose 1-300 nM
[20] = target: T1, Protein cereblon/Androgen receptor; experiment: PROTAC activity at CRBN/AR in human 22Rv1 cells assessed as induction of AR degradation at 50 nM preincubated with MG132 followed by compound addition and measured after 12 hrs by Western blot analysis; format: cell-based
[21] = target: T1, Protein cereblon/Androgen receptor; experiment: PROTAC activity at CRBN/AR in human LNCaP cells assessed as decrease in TMPRSS2 mRNA level at 10 to 100 nM incubated for 24 hrs by qRT-PCR analysis; format: cell-based; conditions: dose 10-100 nM
22Rv1 = experiment: Induction of AR degradation in human 22Rv1 cells transfected with CRBN siRNA at 30 nM incubated for 24 hrs by Western blot analysis; format: cell-based
[22] = system: Protein cereblon/Androgen receptor (Homo sapiens), P10275+Q96SW2 [UNDEFINED MUTATION]; experiment: PROTAC activity at CRBN/Androgen receptor splice variant 7 in human 22Rv1 cells assessed as induction of AR-V7 degradation at 0.1 uM incubated for 24 hrs by Western blot analysis relative to control; format: cell-based
[23] = target: T1, Protein cereblon/Androgen receptor; experiment: PROTAC activity at CRBN/AR in human LNCaP cells assessed as decrease in FKBP5 mRNA level at 10 to 100 nM incubated for 24 hrs by qRT-PCR analysis; format: cell-based; conditions: dose 10-100 nM
LNCaP = experiment: Antitumor activity against human LNCaP cells xenografted in NOD SCID male mouse model assessed as tumor growth inhibition at 20 mg/kg, po administered daily for 26 days relative to control; format: functional; conditions: 624 h, time 26 day, read-out: TGI
[24] = target: T2, Protein cereblon/Eukaryotic peptide chain release factor GTP-binding subunit ERF3A; experiment: Molecular glue activity at CRBN/GSPT1 in human 22Rv1 cells assessed as increase in GSPT1 polyubiquitination at 30 nM preincubated with compound for 12 hrs followed by MG132 addition and measured after 12 hrs by immunoprecipitation based Western blot analysis; format: cell-based; conditions: time 24.0 hrs
CWR22R [25] = experiment: Induction of apoptosis in human 22Rv1 cells assessed as increase in cleaved caspase-3 expression incubated for 24 hrs by Western blot analysis; format: functional, cell-based; conditions: dose 1-30 nM
[26] = target: T1, Protein cereblon/Androgen receptor; experiment: PROTAC activity at CRBN/AR in human LNCaP cells assessed as decrease in PSA mRNA level at 10 to 100 nM incubated for 24 hrs by qRT-PCR analysis; format: cell-based; conditions: dose 10-100 nM
[27] = target: T2, Protein cereblon/Eukaryotic peptide chain release factor GTP-binding subunit ERF3A; experiment: Molecular glue activity at CRBN/GSPT1 in human 22Rv1 cells assessed as induction of GSPT1 degradation by measuring maximal efficacy incubated for 24 hrs by Western blot analysis relative to control; format: cell-based
Mus musculus = experiment: In vivo inhibition of AR transcriptional activity in male NOD SCID mouse model xenografted with human LNCaP cells assessed as reduction in PSA level in tumor at 20 mg/kg, po administered daily for 26 days by ELISA; format: functional, organism-based; conditions: time 26.0 day

Protein cereblon/Androgen receptor (Homo sapiens), P10275+Q96SW2 [UNDEFINED MUTATION], sequence (P10275 whole entry, looked up, change not shown, canonical isoform): as the sequence (P10275 whole entry, looked up) above
Protein cereblon/Androgen receptor (Homo sapiens), P10275+Q96SW2 [UNDEFINED MUTATION], sequence (Q96SW2 whole entry, looked up, change not shown, canonical isoform): as the sequence (Q96SW2 whole entry, looked up) above

COc1ccc(C(C)(C)c2cc(Cl)c(OCC3CCN(C(=O)CCCCCNc4ccc5c(c4)C(=O)N(C4CCC(=O)NC4=O)C5=O)CC3)c(C#N)c2)cc1 (stereo unspecified)
Activity [1]: 98.3% | Activity [2]: inactive | Activity [3]: 56.1% | Activity [4]: inactive | Activity [5]: 65.7% | Activity [6]: 89.4% | IC50 (CWR22R [7]): 1.1 nM | AUC [8]: 1850 ng·h/mL | Activity [9]: 89.9% | IC50 (VCaP): 1.5 nM | Activity [10]: inactive | Activity (CWR22R [11]): Active | Activity [12]: inactive | Activity [13]: Active | Emax [14]: 82.5% | Activity (CWR22R [15]): Minimal_effect | Activity (CWR22R [16]): Active | Activity (CWR22R [17]): Active | Activity [18]: inactive | Activity [19]: Active | Activity [20]: inactive | Activity [21]: Active | Activity (22Rv1): inactive | Activity [22]: 76.7% | Activity [23]: Active | inhibition in vivo at 20 mg/kg (LNCaP): 60% | Activity [24]: Active | Activity (CWR22R [25]): Dose-dependent-effect | Activity [26]: Active | Emax [27]: 94.2% | inhibition (Mus musculus): Active; Superior Activity Than Enzalutamide Treatment Group Observed
